# Measured values as given in patent US5380759A, “Methyl N-[6-(3,4,5-trimethoxybenzloxy)imidazo[1,2-b]pyridazin-2-zyl]carbamate used to treat leukemia” (priority 1987, dated 1995).
# pIC50: −log10 of the molar value.
# Columns and labels:
# [1] = system: P388/O tumour; experiment: Lymphocytic leukaemia P388/O test; type: in vivo, mouse; settings: 10 mg/kg i.p. days 1, 5 and 9
# Protocol: C. Lymphocytic Leukemia P388/O Test
# (§1) CD2-F1 mice, of the same sex, weighing within a 3 gram range surrounding 20 g, are used for this test. Control and test animals are injected intraperitoneally with a suspension of 10^6 viable P388/O tumour cells on day 0. In each test several dose levels which bracket the LD20 for the compound are evaluated; each dose level group contains 6 animals. The test compounds are prepared either in physiologic saline containing 0.05% Tween 80 or distilled water containing 5% dextrose and are administered intraperitoneally on days 1,5 and 9 relative to tumour implant. Doses are on a mg/kg basis according to individual animals' body weights. The day of death for each animal is recorded and the median day of death identified for each group. The difference between the median survival time for treated and control groups is expressed as a percentage increase in life span (% ILS).
# [2] = LD20 (Mouse); type: in vivo; settings: i.p. days 1, 5 and 9, CD2-F1 mice, observed up to 14 days
# [3] = system: P388/BCNU; experiment: In vivo activity against drug resistant tumour P388/BCNU; parameters: species or system mouse; settings: optimum dose 7.5 mg/kg
# Protocol: as §1
# (§2) E. Activity Against Drug-Resistant Tumours
# Using a similar procedure to the Lymphocytic Leukaemia P388/O test, the compound of Example 1 was evaluated against P388/O tumours which had been made resistant to the following standard, clinically used anti-tumour agents:
# bis-chloronitrosourea (BCNU)
# [4] = system: P388/Cis--Pt; experiment: In vivo activity against drug resistant tumour P388/Cis-Pt; parameters: species or system mouse; settings: optimum dose 10.0 mg/kg
# [5] = system: P388/ADR; experiment: In vivo activity against drug resistant tumour P388/ADR; parameters: species or system mouse; settings: optimum dose 10.0 mg/kg
# Protocol: as §1, §2
# (§3) Using a similar procedure to the Lymphocytic Leukaemia P388/O test, the compound of Example 1 was evaluated against P388/O tumours which had been made resistant to the following standard, clinically used anti-tumour agents: […]
# [6] = system: P388/MTX; experiment: In vivo activity against drug resistant tumour P388/MTX; parameters: species or system mouse; settings: optimum dose 7.5 mg/kg
# Protocol: as §1, §2, §3
# [7] = system: P388/ActD; experiment: In vivo activity against drug resistant tumour P388/ActD; parameters: species or system mouse; settings: optimum dose 12.5 mg/kg
# Protocol: as §1, §2, §3
# [8] = system: P388/VCR; experiment: In vivo activity against drug resistant tumour P388/VCR; parameters: species or system mouse; settings: optimum dose 12.5 mg/kg
# Protocol: as §1, §2, §3
# [9] = system: P388/5FU; experiment: In vivo activity against drug resistant tumour P388/5FU; parameters: species or system mouse; settings: optimum dose 10.0 mg/kg
# Protocol: as §1, §2, §3
# [10] = system: DLD-1 human colon carcinoma cells; experiment: In vitro activity against human tumour cell line DLD-1 (proliferation); type: cell-based; settings: DLD-1, 96 h, methylene blue, read-out: IC50
# Protocol: (§4) Cells from the human tumour cell lines DLD-1, HCT-116, WiDr and A549 are exposed to serially diluted concentrations of test compounds over a 96 hour period in culture. The ability of such cells to proliferate over the test period is determined.
# (§5) Cells in log growth are plated into 96 well multiwell tissue culture dishes in 100 μl/well of RPMI 1640 culture medium supplemented with 10% foetal calf serum, antibiotics and test compound. All compounds are formulated initially at appropriate concentrations in DMSO, the final concentrations in this solvent being twenty times that required in the plate. A final 1 in 10 dilution in complete medium is then made before adding 100 μl to each well of the plate. All compounds are evaluated at concentrations ranging serially in four fold decrements from a top concentration some four fold greater than that already known to inhibit the proliferation of cells from the mouse lymphoid neoplasm, P388D1 by about 80 to 90 percent in a primary proliferative assay.
# (§6) After 96 hours the proliferation of cells exposed to test compound is compared with control untreated cells by one of two methods:
# a) Culture supernatants are aspirated and cells fixed and stained by adding a solution of methylene blue (5 g per liter of 50% ethanol: water, 100 μl/well). After 30 minutes at room temperature unbound stain is washed off by immersing plates in water. Stained cells are solubilised overnight using 1% Sarkosyl (Sigma) in phosphate-buffered saline (100 μl/well). Absorbances are read by an ELISA plate spectrophotometer at a wavelength of 620 nm. The IC50 is defined as that concentration of drug which decreases absorbance to 50% of that in control (drug-free) cultures. This method is used for the DLD-1 cell line.
# [11] = system: WiDr human colon adenocarcinoma cells; experiment: In vitro activity against human tumour cell line WiDr (proliferation); type: cell-based; settings: 96 h, MTT, read-out: IC50
# Protocol: as §4, §5, §6
# (§7) b) 20 μl of MTT (5 mg/ml in PBS) is added to each well. After an incubation period of 4 hours the medium from each well is aspirated and replaced with 200 μl DMSO to dissolve the formazan crystals formed. Absorbances are read by an ELISA plate spectrophotometer at a wavelength of 540 nm. The IC50 is defined as that concentration of drug which decreases absorbance to 50% of that in control (drug-free) cultures. This method is used for the WiDr, HCT-116 and A549 cell lines.
# [12] = system: HCT-116 human colon carcinoma cells; experiment: In vitro activity against human tumour cell line HCT-116 (proliferation); type: cell-based; settings: HCT-116, 96 h, MTT, read-out: IC50
# Protocol: as §4, §5, §6, §7
# [13] = system: A549 human lung carcinoma cells; experiment: In vitro activity against human tumour cell line A549 (proliferation); type: cell-based; settings: A549, 96 h, MTT, read-out: IC50
# Protocol: as §4, §5, §6, §7
# [14] = system: M5076; experiment: In vivo activity against murine tumour M5076; parameters: species or system mouse; settings: 5 mg/kg i.p. days 1, 5 and 9; 1 expt
# Protocol: as §1
# (§8) G. In vivo activity of the compound of Example 1 against murine tumours
# (§9) Using a similar procedure to the Lymphocytic Leukaemia P388/O test the compound of Example 1 was evaluated against the murine tumours B16, L1210 and M5076. A suspension of 10^6 tumour cells is implanted intraperitoneally into control and test animals on day zero. B16 tumour cells are administered intraperitoneally as a 1:10 Brei of cells on day zero. […] The day of death for each animal is recorded and the %ILS (percentage increase in life-span) calculated.
# [15] = system: L1210; experiment: In vivo activity against murine tumour L1210; parameters: species or system mouse
# [16] = system: B16; experiment: In vivo activity against murine tumour B16; parameters: species or system mouse
# Protocol: as §1, §8, §9
# [17] = system: strains of P388; experiment: In vivo activity against strains of P388 resistant to major clinically used anti-tumour agents; parameters: species or system mouse; settings: resistant to cyclophosphamide, methotrexate, actinomycin D, vincristine, adriamycin, 5-fluorouracil, cis-platinum, bis-chloronitrosourea and amsacrine
# Protocol: as §1, §2, §3
smiles,measurement,setting,value
"COC(=O)Nc1cn2nc(OCc3cc(OC)c(OC)c(OC)c3)ccc2n1 [Example 1, Methyl N-[6-(3,4,5-trimethoxybenzyloxy)imidazo[1,2-b]pyridazin-2-yl]carbamate]",30 Day survivors,[1],6/6
same,60 Day Survivors,[1],2/6
same,ILS at 10 mg/kg,"[1]; Mus musculus, P388, ip",300%
same,LD50,[2],20 to 30 mg/kg
same,60 Day Survivors,[3],0/6
same,% ILS,[3],+131%
same,60 Day Survivors,[4],1/6
same,% ILS,[4],+50%
same,60 Day Survivors,[5],0/6
same,% ILS,[5],+90%
same,60 Day Survivors,[6],1/6
same,% ILS,[6],+100%
same,60 Day Survivors,[7],1/6
same,% ILS,[7],+109%
same,60 Day Survivors,[8],3/6
same,% ILS,[8],+145%
same,60 Day Survivors,[9],0/6
same,% ILS,[9],+92%
same,pIC50,[10],7.94
same,pIC50,[11],7.52
same,pIC50,[12],8.04
same,pIC50,[13],7.62
same,Mean % ILS (±SEM),[14],28%
same,Mean % ILS (±SEM),"[15]; 10 mg/kg i.p. days 1, 5 and 9, 2 expts",134 (±72) %
same,activity in vivo against L1210 leukaemia,[15]; in words,good activity
same,Mean % ILS (±SEM),"[16]; 5 mg/kg i.p. days 1, 5 and 9, 3 expts",69 (±4) %
same,activity in vivo against B16 melanoma,[16]; in words,good activity
same,activity in vivo against resistant strains of P388,[17],good activity in vivo
